Reference: patent US7300946B2, “N-(substituted arylmethyl)-4-(disubstituted methyl) piperidines and pyridines” (Bayer CropScience AG, priority 2002, dated 2007)

Tested on: tobacco budworm (Heliothis virescens [Fabricius])
Assay: surface-treated diet test against the tobacco budworm
Format: in vivo
Details: tobacco budworm second instar larvae, 0.25 millimoles of candidate insecticide on the surface of the diet, five-day exposure; for Percent Mortality: compared to total number of insects infested; for Percent Growth Inhibition: inhibition of insect weight relative to untreated controls
Procedure, shortened: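 Wheat germ artificial diet surface-treated with 40 µL of 50 mM DMSO stock diluted 1:7 in 1:1 water/acetone (0.25 millimolar on diet), or sub-multiples for rate tests. One second-instar larva per well, 25° C, 60% RH, 5 days; percent weight inhibition vs DMSO controls and percent mortality.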

| Compound | Percent Mortality (surface-treated diet) [%] | Percent Growth Inhibition (surface-treated diet) [%] | Percent Mortality [%] | Percent Growth Inhibition [%] |
| --- | --- | --- | --- | --- |
| CC(C)OC(=O)Nc1ccc(CN2CCC(C(OC(=O)Nc3cc(F)cc(F)c3)c3ccc(Cl)cc3)CC2)cc1 (centres unmarked) [Compound 502] | 100 | 100 |  |  |
| CCNC(=O)Nc1ccc(CN2CCC(C(OC(=O)Nc3cc(F)cc(F)c3)c3ccc(C(F)(F)F)cc3)CC2)cc1 (centres unmarked) [Compound 517] | 0 | 86 |  |  |
| CCCS(=O)(=O)NC(c1ccc(OC(F)(F)F)cc1)C1CCN(Cc2ccc(-c3nnn(C)n3)cc2)CC1 (centres unmarked) [Compound 433, [(1-{[4-(2-methyl(1,2,3,4-tetraazol-5-yl))phenyl]methyl}(4-piperidyl))[4-(trifluoromethoxy)phenyl]methyl]propylsulfonylamide] | 100 | 100 |  |  |
| CCCOc1ccc(CN2CCC(=C(c3cccc(OC(F)(F)F)c3)c3cccc(OC(F)(F)F)c3)CC2)cc1 [Compound 47] | 0 | 11 |  |  |
| Cn1nnc(-c2ccc(CN3CCC(C(NCc4ccc([N+](=O)[O-])cc4)c4ccc(OC(F)(F)F)cc4)CC3)cc2)n1 (centres unmarked) [Compound 320] | 100 | 100 |  |  |
| CC(NC(=O)OC(c1ccc(C(F)(F)F)cc1)C1CCN(Cc2ccc(Oc3ccccn3)cc2)CC1)c1ccccc1 (centres unmarked) [Compound 660] | 0 | 98 |  |  |
| COc1ccc(NC(=O)OC(c2ccc(C(F)(F)F)cc2)C2CCN(Cc3ccc(Oc4ccccn4)cc3)CC2)cc1F (centres unmarked) [Compound 700] | 100 | 100 |  |  |
| CCON=Cc1ccc(CN2CCC(C(OC(=O)Nc3cc(F)cc(F)c3)c3ccc(C(F)(F)F)cc3)CC2)cc1 (centres unmarked) [Compound 200] | 100 | 100 |  |  |
| COc1ccc(NC(=O)NC(c2ccc(OC(F)(F)F)cc2)C2CCN(Cc3ccc(-c4nnn(C)n4)cc3)CC2)cc1 (centres unmarked) [Compound 343] | 100 | 100 |  |  |
| O=C(Nc1ccc(I)cc1)OC(c1ccc(C(F)(F)F)cc1)C1CCN(Cc2ccc(Oc3ccccn3)cc2)CC1 (centres unmarked) [Compound 677] | 100 | 100 |  |  |
| CCn1nnc(-c2ccc(CN3CCC(C(OC(=O)Nc4ccc(C(F)(F)F)cc4)c4ccc(-c5ccccc5)cc4)CC3)cc2)n1 (centres unmarked) [Compound 615] | 17 | 72 |  |  |
| Cn1nnc(-c2ccc(CN3CCC(C(OC(=O)Nc4cccc(Cl)c4)c4ccc(OC(F)(F)F)cc4)CC3)cc2)n1 (centres unmarked) [Compound 263] | 100 | 100 |  |  |
| CCN(CC)S(=O)(=O)c1ccc(CN2CCC(C(OC(=O)Nc3cc(F)cc(F)c3)c3ccc(C(F)(F)F)cc3)CC2)cc1 (centres unmarked) [Compound 541] | 0 | 59 |  |  |
| O=C(Nc1cc(F)cc(F)c1)OC(c1ccc(C(F)(F)F)cc1)C1CCN(Cc2ccc(Oc3ccccn3)cc2)CC1 (centres unmarked) [Compound 240] | 100 | 100 |  |  |
| CCON=Cc1ccc(CN2CCC(C(OC(=O)Nc3ccc(F)c(F)c3)c3ccc(C(F)(F)F)cc3)CC2)cc1 (centres unmarked) [Compound 196] | 100 | 100 |  |  |
| O=C(Nc1cc(Cl)nc(Cl)c1)OC(c1ccc(C(F)(F)F)cc1)C1CCN(Cc2ccc(Oc3ccccn3)cc2)CC1 (centres unmarked) [Compound 451] | 100 | 100 |  |  |
| CCn1nnc(-c2ccc(CN3CCC(C(OC(=O)Nc4ccc(Cl)cc4)c4ccc(F)c(F)c4)CC3)cc2)n1 (centres unmarked) [Compound 588] | 100 | 100 |  |  |
| CC(C)OC(=O)Nc1ccc(CN2CCC(C(OC(=O)Nc3cc(F)cc(F)c3)c3ccc(F)cc3)CC2)cc1 (centres unmarked) [Compound 505] | 100 | 100 |  |  |
| CCON=Cc1ccc(CN2CCC(C(OC(=O)Nc3ccc(F)c(F)c3)c3ccc(OC(F)(F)F)cc3)CC2)cc1 (centres unmarked) [Compound 195] | 100 | 100 |  |  |
| CCOS(=O)(=O)[O-].CCO[N+]1(Cc2ccc(Oc3ccccn3)cc2)CCC(C(OC(=O)Nc2ccc(Cl)cc2)c2ccc(C(F)(F)F)cc2)CC1 (centres unmarked) [Compound 860, N-(4-chlorophenyl)({1-ethoxy-1-[(4-(2-pyridyloxy)phenyl)methyl](4-piperidyl)}[4-(trifluoromethyl)phenyl]methoxy)carboxamide, ethyl sulfate salt] |  |  | 100 | 100 |
| O=C(Nc1ccc(F)c(F)c1)OC(c1ccc(C(F)(F)F)cc1)C1CCN(Cc2ccc(Oc3ncccn3)cc2)CC1 (centres unmarked) [Compound 732] |  |  | 100 | 100 |
| CCn1nnc(-c2ccc(CN3CCC(C(OC(=O)Nc4ccc(Br)cc4)c4ccc(C(F)(F)F)cc4)CC3)cc2)n1 (centres unmarked) [Compound 269] | 100 | 100 |  |  |
| O=C(NCc1ccc(F)cc1)OC(c1ccc(C(F)(F)F)cc1)C1CCN(Cc2ccc(Oc3ccccn3)cc2)CC1 (centres unmarked) [Compound 676] | 100 | 100 |  |  |

| Compound | Percent Mortality (surface-treated diet) [%] | Percent Growth Inhibition (surface-treated diet) [%] | Percent Mortality [%] | Percent Growth Inhibition [%] |
| --- | --- | --- | --- | --- |
| CCn1nnc(-c2ccc(CN3CCC(C(OC(=O)Nc4cc(F)cc(F)c4)c4ccc(C(F)(F)F)cc4)CC3)cc2)n1 (centres unmarked) [Compound 610] | 100 | 100 |  |  |
| O=C(Nc1cc(F)cc(F)c1)OC(c1ccc(Cl)c(Cl)c1)C1CCN(Cc2ccc(Oc3ccccn3)cc2)CC1 (centres unmarked) [Compound 647] | 100 | 100 |  |  |
| O=C(Nc1ccc(F)c(F)c1F)OC(c1ccc(C(F)(F)F)cc1)C1CCN(Cc2ccc(Oc3ccccn3)cc2)CC1 (centres unmarked) [Compound 242] | 100 | 100 |  |  |
| CCn1nnc(-c2ccc(CN3CCC(C(OC(=O)Nc4ccc(F)c(F)c4)c4ccc(Cl)c(Cl)c4)CC3)cc2)n1 (centres unmarked) [Compound 574] | 100 | 100 |  |  |
| Cn1nnc(-c2ccc(C[N+]3([O-])CCC(C(OC(=O)Nc4ccc(Cl)cc4)c4ccc(OC(F)(F)F)cc4)CC3)cc2)n1 (centres unmarked) [Compound 399] | 100 | 100 |  |  |
| CCn1nnc(-c2ccc(CN3CCC(C(OC(=O)Nc4cc(F)cc(F)c4)c4ccc(-c5ccccc5)cc4)CC3)cc2)n1 (centres unmarked) [Compound 614] | 16 | 99 |  |  |
| FC(F)(F)c1ccc(C(Oc2ccc(C(F)(F)F)cn2)C2CCN(Cc3ccc(Oc4ccccn4)cc3)CC2)cc1 (centres unmarked) [Compound 437] | 100 | 100 |  |  |
| O=C(NC1CCCCC1)OC(c1ccc(C(F)(F)F)cc1)C1CCN(Cc2ccc(Oc3ccccn3)cc2)CC1 (centres unmarked) [Compound 432] | 100 | 100 |  |  |
| O=C(Nc1ccc(C(F)(F)F)cc1)OC(c1ccc(Cl)c(Cl)c1)C1CCN(Cc2ccc(Oc3ccccn3)cc2)CC1 (centres unmarked) [Compound 651] | 100 | 100 |  |  |
| CCON=Cc1ccc(CN2CCC(C(OC(=O)Nc3ccc(C(F)(F)F)cc3)c3ccc(C(F)(F)F)cc3)CC2)cc1 (centres unmarked) [Compound 205] | 33 | 100 |  |  |
| [O-][N+]1(Cc2ccc(Oc3ncccn3)cc2)CCC(=C(c2ccc(C(F)(F)F)cc2)c2ccc(Cl)c(F)c2)CC1 (centres unmarked) [Compound 852] |  |  | 100 | 100 |
| CCCOc1ccc(CN2CCC(C(OC(=O)Nc3cc(F)cc(F)c3)c3ccc(Cl)cc3)CC2)cc1 (centres unmarked) [Compound 474] | 100 | 100 |  |  |
| Cn1nnc(-c2ccc(CN3CCC(C(NC(=O)Oc4ccc(Br)cc4)c4ccc(OC(F)(F)F)cc4)CC3)cc2)n1 (centres unmarked) [Compound 350] | 100 | 100 |  |  |
| CCn1nnc(-c2ccc(CN3CCC(C(OC(=O)Nc4ccc(Cl)cc4)c4ccc(OC)c(OC)c4)CC3)cc2)n1 (centres unmarked) [Compound 608] | 83 | 100 |  |  |
| CCn1nnc(-c2ccc(CN3CCC(=C(c4ccc(C(F)(F)F)cc4)c4ccc(C(F)(F)F)cc4)CC3)cc2)n1 [Compound 82] | 100 | 100 |  |  |
| FC(F)(F)c1ccc(C(Oc2cc(C(F)(F)F)ccn2)C2CCN(Cc3ccc(Oc4ccc(Cl)nn4)cc3)CC2)cc1 (centres unmarked) [Compound 441] | 100 | 100 |  |  |
| Cn1nnc(-c2ccc(CN3CCC(C(OC(=O)Nc4ccccc4Cl)c4ccc(OC(F)(F)F)cc4)CC3)cc2)n1 (centres unmarked) [Compound 262] | 100 | 100 |  |  |
| O=C(Nc1ccc(Br)cc1)OC(c1ccc(C(F)(F)F)cc1)C1CCN(Cc2ccc(Oc3ccccn3)cc2)CC1 (centres unmarked) [Compound 673] | 100 | 100 |  |  |
| O=C(Nc1cccc(Br)c1)OC(c1ccc(C(F)(F)F)cc1)C1CCN(Cc2ccc(Oc3ccccn3)cc2)CC1 (centres unmarked) [Compound 672] | 100 | 100 |  |  |
| CC(C)OC(=O)Nc1ccc(CN2CCC(=C(c3ccc(Cl)c(Cl)c3)c3ccc(Cl)c(Cl)c3)CC2)cc1 [Compound 795] |  |  | 50 | 94 |
| O=C(Nc1cc(Cl)ccc1Cl)OC(c1ccc(C(F)(F)F)cc1)C1CCN(Cc2ccc(Oc3ccccn3)cc2)CC1 (centres unmarked) [Compound 231] | 100 | 100 |  |  |
| N#Cc1ccc(Oc2ccc(CN3CCC(C(OC(=O)Nc4ccc(Cl)cc4)c4ccc(C(F)(F)F)cc4)CC3)cc2)nc1 (centres unmarked) [Compound 671] | 100 | 100 |  |  |
| CCON=Cc1ccc(CN2CCC(C(OC(=O)Nc3c(F)c(F)c(F)c(F)c3F)c3ccc(C(F)(F)F)cc3)CC2)cc1 (centres unmarked) [Compound 202] | 100 | 100 |  |  |
